Test results published in US20210052580A1 (ST IP Holding AG, priority 2018, published 2021).
Values after ≈ are worked out from the molar mass of the structure shown. Where two headings read alike, the source gives them in different places.

Columns and labels:
[1] = tested on: primary human gingival epithelial cells (HGEPp); assay: TACS MTT cell viability assay, H2O2-induced oxidative stress; type: cell-based
Procedure: Pooled primary HGEPps were propagated in CnT-Prime epithelial culture medium provided by CellnTec on 100 mm petri dishes coated with 30 mg/ml Type I rat tail collagen (BD Biosciences) diluted in Dulbecco's phosphate-buffered saline (DPBS). […] The cells were harvested when they reached 70-90% confluency as observed by light microscopy. For routine cultivation, the medium was changed every 3 days. For both the cell viability and ROS assays, the cells from passages 3-7 were seeded at 5×10 3, 2.5×10 4, 5×10^4 cells/cm 2 density to grow cell monolayers in 24-well flat-bottomed tissue culture plates and acclimated overnight at 37° C.
Preparation of Dosing Solutions • 1. Recrystallized oltipraz was received as a powder from Supportive Therapeutics and a 100 mM DMSO stock was prepared. Further dilutions were prepared in DMSO from the 100 mM DMSO stock and each DMSO dilution was then added into 10 mL of Dulbecco's phosphate-buffered saline to arrive at final concentrations of 10, 50, and 100 μM. • 2. The Normal (Control) group contained saline with the same percentage of DMSO as the treated group. • 3. All dosing solutions contained 0.3% of DMSO which is well below the maximum tolerated DMSO percent of 0.8% for HGEPp cells. • 4. Formulated oltipraz crystals and control powder were received as a powder and a 500 mM DMSO stock solution was prepared for each powder. • 5.
Cell Survival Assay (TACS MTT Kit) • 1. Plate cell concentration was selected to be 6.25×10^5/ml to yield an OD absorbance within the linear portion of the control curve. • 2. Once the HGEPp cells were cultured and ready on the microplate, the media was removed from all the wells and discarded. The cells were washed gently with DPBS 2-3 times and the last wash removed and discarded. • 3. Added 10 ul of MTT reagent to each well. • 4. Incubated the plate for 6 hours at 37° C. Viewed the cells to confirm the appearance of intracellular precipitate using an inverted microscope. • 5. Added 100 ul of Detergent Reagent to all wells, including the control wells taking care not to shake the plates • 6. Left the plate covered in the dark at room temperature overnight. • 7. Removed the plate cover and measured the absorbance of the wells, including the blanks at 570 nm. • 8. Determined the average values from triplicate readings after subtracting the average value for the blanks.
HGEPp cells were exposed to different concentrations of H2O2 for 4 h to examine H2O2-induced oxidative stress. The cells were exposed to 0-0.6 mM H2O2 for 4 h and cell viability was evaluated using the TACS MTT Cell Proliferation Assay Kit. The percentage of cell survival was determined using the ratio of the optical density (OD) of the test sample to the OD of the control×100%. […] The data is mean+/−SD of 3 experiments in 6 replicate wells.
Normal control cells were cultured in DPBS containing 0.3% DMSO. Positive Control (PC): oxidative stressed group cells after treatment with 0.3 mM H2O2 for 4 h. […] The percentage of cell survival was determined by the ratio of the optical density (OD) of the test samples to the OD of the control×100%.
Pooled primary HGEPp's were propagated in CnT-Prime epithelial culture medium provided by CellnTec on 100 mm petri dishes coated with 30 mg/ml Type I rat tail collagen (BD Biosciences) diluted in Dulbecco's phosphate-buffered saline (DPBS). […] The cells were harvested when they reached 70-90% confluency as observed by light microscopy. For routine cultivation, the medium was changed every 3 days.

physchem = conditions: 20 °C, thermodynamic from solid
[2] = tested on: male Syrian Golden Hamsters
Procedure: Twenty-four (24) male Syrian Golden Hamsters were used in the study. Mucositis was induced by giving an acute radiation dose of 40 Gy directed to the left buccal cheek pouch on Day 0. Mucositis was evaluated clinically starting on Day 6 and continuing on alternate days until Day 28.
Mucositis was scored visually by comparison to a validated photographic scale, ranging from 0 for normal, to 5 for severe ulceration (clinical scoring). In descriptive terms, this scale is defined as described in Table 7 below: […]
A mucositis score of 3 or greater indicates ulcerative mucositis, a clinically significant threshold.
Statistical significance of observed differences was calculated using chi-squared analysis.
An analysis of the severity of mucositis was performed using the Mann-Whitney rank sum analysis to compare the visual mucositis scores for Groups 2 and 3 to the vehicle control group (Group 1) on each day of the analysis. In this analysis, 2 consecutive days of significant reduction in the mucositis score are generally required before it is regarded as clinically meaningful.
The significance of group differences observed in daily mucositis scores was determined using the Mann-Whitney rank sum test. This nonparametric statistic is appropriate for the visual mucositis scoring scale. The p-values for each calculation are shown. “x” denotes significant difference in mucositis scores. “y” denotes increase in comparison to vehicle Group (improvement). “z” denotes decrease.
“y” denotes an increase in comparison to vehicle Group, “z” denotes decrease (improvement).

[3] = tested on: primary human gingival epithelial cells (HGEPp); assay: OxiSelect intracellular ROS assay, H2O2-treated cells; type: cell-based
Text: 2. measure the effect of recrystallized oltipraz and formulated oltipraz on hydroxyl, peroxyl and other reactive oxygen species within HGEPp cells, using Cell Biolabs' OxiSelect™ Intracellular ROS Assay Kit. This assay employs the cell-permeable fluorogenic probe 2′,7′-dichlorodihydrofluorescin diacetate (DCFH-DA) which diffuses into cells and is deacetylated by cellular esterases to a nonfluorescent DCFH which is then rapidly oxidized to highly fluorescent 2′,7′-dichlorodihydrofluorescein (DCF) by ROS.
Prepared and mixed all reagents thoroughly before use. […] Once the HGEPp cells were cultured and ready on a microplate, the media was removed from all the wells and discarded. Washed the cells gently with DPBS 2-3 times. Removed the last wash and discarded it. • 3. Added 100 μL of 1×DCFH-DA/media solution to the cells. […] Fluorescence was read on a Fluorescence Plate Reader after 1 hour. […] Transferred 150 μL of the mixture to a fresh 24-well plate for fluorescence measurements at 530 nm. […]
Intracellular ROS was measured using a Spectramax M3 microplate reader.
Prepared and mixed all reagents thoroughly before use. […] Once the HGEPp cells were cultured and ready on a microplate, the media was removed from all the wells and discarded. […] Transferred 150 μL of the mixture to a fresh 24-well plate for fluorescence measurements at 530 nm.
Intracellular ROS was measured using a Spectramax M3 microplate reader. […]

rat cortical neurons = type: cell-based; conditions: MK801 10 μM
Procedure: The objective of the experiments in this Example was to explore the protective effects of three compounds in the neurotoxicity induced by oxygen glucose deprivation. A multiparametric cell-based protocol is used in this Example in order to determine the mechanisms of action. The assay was applied to “freshly isolated” rat cortical neurons cultured in 96-well-plates and exposed to the compounds at 100 μg/ml. Moreover, some cells were treated with the compounds in addition with atovaquone (100 μg/ml).
In vitro ischemic injury was induced in rat primary neuronal culture by oxygen-glucose deprivation for 2 hours. Neurons were incubated with the compounds during 1 hour eighteen hours prior to the OGD induction. MK801 10 μM was used as positive neuroprotection control. After the treatments, supernatants were collected for measuring extracellular LDH levels (plasma membrane integrity determination) and cells were simultaneously incubated with three optically compatible fluorescent dyes, and subsequently analyzed with BD Pathway 855 (Becton Dickinson). Cell parameters associated with nuclear morphology, mitochondrial damage and caspase 3/7 activation-indicative of prelethal cytotoxic effects and representative of different mechanism of toxicity-were measured by HCS at single cell level. Finally, cells were fixed and stained with beta III tubulin antibody for measuring the neurite outgrowth.
Primary cultures of cortical neurons were isolated from cerebral cortices of Sprague-Dawley rat foetuses at embryonic day 18. Brains were removed and after removing the meninges, the tissues were dissected under a binocular microscope. Neurons were enzymatically dispersed by trypsin 0.2% and DNAse […] digestion for 10 min at 37° C., plated in poly-L-lysine wells and incubated with B27 supplemented neurobasal medium.
Cortical neurons of 18 days old embryonic rats were plated in poly-l-lysine coated 96-well plates (30.000 cells per well). Cells were maintained in neurobasal medium supplemented with B-27 component for 5 days at 37° C. in a humidified 5% CO2 atmosphere. At day 5, cells were subjected to oxygen glucose deprivation (OGD) for 2 hours at 37° C. The cultures were placed in an aerobic chamber (Billops-Rothenberg) and incubated in neurobasal medium lacking glucose and B27 factor, and aerated with an anaerobic gas mixture (94.7% N2, 5% CO2, 0.3% O2) to remove residual oxygen. Control cultures were kept in the original neurobasal medium but were submitted to the anaerobic conditions. At the end of the OGD conditions, the cells were removed from the anaerobic chamber, the OGD medium was replaced with neurobasal medium containing glucose, and the cells were incubated for an additional 24 h. The test compounds were added to the neurons eighteen hours prior to the OGD induction and maintained for 1 h. Replicate cultures were treated as described above with MK801 as positive control of neuroprotection.
Compound neuroprotective potential was determined by HCS analysis, which included the following endpoints: plasma membrane integrity, cell viability, alterations of mitochondrial membrane potential, caspase 3/7 activation and neurite outgrowth.
(§1) To determine the integrity of the plasma membrane, supernatants were collected 24 h after treatments and LDH assay was performed following manufacturer's instructions.
(§2) Cell number was determined by hoechst 33342 nucleic acid staining. This dye allows a sensitive cell number determination by fluorescence microscopy. Cells were stained with 5 μg/ml, washed 3 times and measured at 380 nm/460 nm Ex/Em.
Mitochondrial activity was determined using TMRM, a lipophilic cationic fluorescent probe that freely crosses the plasma membrane and accumulates within mitochondria, depending on their membrane potential. Cells were stained with 50 nM tetramethyl rhodamine methyl ester-TMRM, washed 3 times and measured at 555 nm/645 nm Ex/Em. TMRM fluorescence intensity in cytosolic regions around the nucleus was registered. […]

mouse cardiomyocytes = type: cell-based; conditions: NAC 100 μM
Procedure: In vitro ischemic injury was induced in mouse neonatal primary cardiomyocyte culture by oxygen-glucose deprivation for 18 hours. Cardiomyocytes were incubated with two concentrations of the compounds during 4 hours prior to the OGD induction. The test compounds were also present during the OGD insult and 24 h-recovery period. NAC was used as positive control of cardioprotection. After treatments, cell viability was measured with WST-8 and ATP, and supernatants were collected to measure LDH for studying plasma membrane integrity. Cells were simultaneously loaded with two fluorescent dyes showing optical compatibility, and were then analyzed with BD Pathway 855 (Becton Dickinson). By using the technology of HCS, cell parameters associated with nuclear morphology and caspase 3/7 activation (indicative of pre-lethal cytotoxic effects and representative of different mechanism of toxicity) were measured at the single cells level, which allows high-throughput screening. Data were expressed as means±SD of three separate wells and individual comparisons were made with Student's test (SigmaPlot 9.0 program).
Primary cultures of cardiomyocytes were prepared from the hearts of Swiss mouse neonates P0-P2. Hearts were removed and enzymatically dissociated following instructions from Neonatal heart Dissociation Kit of Miltenyi Biotec. Then cardiomyocytes were isolated following also the instructions of Miltenyi biotec. Briefly, cells were isolated by depletion of non-target cells. Non-target cells (fibroblasts and endothelial cells) are directly magnetically labeled with a cocktail of monoclonal antibodies conjugated with MACS microbeads. The magnetically labeled non-target cells were depleted by retaining them within an MCS column in the magnetic fields of a MACS separator, while the unlabeled cardiomyocytes passed through the column. Then, cardiomyocytes were counted and plated on fibronectin-coated wells with cardiac myocyte complete medium (1% CMGS component, 1% penicillin/streplomycina and 5% FBS).
Cardiomyocytes from P0-P2 days mice were plated in fibronectin coated 96-well plates with a number of 30.000 cells per well. Cells were maintained in cardiac myocyte complete medium (Cardiac myocyte medium, growth factors, 5% FBS, 1% penicillin/streptomycin) for 1 day at 37° C. in a humidified 5% CO2 atmosphere. At day 2, cells were washed and treated with compounds in complete medium 4 h prior to being subjected to oxygen glucose deprivation for 18 hours at 37° C. The cultures were placed in an aerobic chamber (Billops-Rothenberg) and incubated with DMEM medium lacking glucose and growth factors, and aerated with an anaerobic gas mix (94.7% N2, 5% CO2, 0.3% O2) to remove residual oxygen. Control cells were kept in the original cardiac myocyte medium but under anaerobic conditions. At the end of the OGD insult the cells were removed from the anaerobic chamber, the OGD medium was replaced with cardiac myocyte medium containing glucose without growth factors, and the cells were incubated for additional 24 h. The test compounds were also present during the OGD insult and the recovery period. Some cells were treated as described above with NAC 100 μM as positive control of cardioprotection.
as §1, §2
Caspase 3/7 activation was determined using The CellEvent® Caspase-3n Green Detection Reagent which is intrinsically a non-fluorescent peptide that inhibits the ability of the dye to bind to DNA. However, after […] activation in apoptotic cells, the peptide is cleaved allowing the dye to bind to DNA producing a bright, fluorogenic response. […]

[4] = Examples 10, 11, 12.5-800 μg/mL, procedure of Example 9
[5] = entire study duration, of 192 animal days

With `COc1ccc2cc3[n+](cc2c1OC)CCc1cc2c(cc1-3)OCO2` [Berberine] as the compound, how does the “effect on proliferation/survival of H2O2-induced oxidatively stressed HGEPp cells” value (“effect on proliferation/survival” for short) [1, 4] read?
Its value is “little or no impact”.

With `Cc1c(-c2cnccn2)ssc1=S` [Neat oltipraz, 4-methyl-5-(pyrazin-2-yl)-3H-1,2-dithiole-3-thione] as the compound, how does the solubility (physchem; 2% simulated intestinal fluid, fassgf or other biorelevant) read?
The solubility was 15.8 µg/mL (≈ 69.8 µM).

And the solubility (physchem; water)?
Its solubility is 3.1 µg/mL (≈ 13.7 µM).

And the “effect on H2O2-induced decrease in HGEPp survival” value ([1]; Example 7, 50 to 800 μg/ml, 24 h pretreatment, then 0.3 mM H2O2 4 h)?
Its value is “promoted cell proliferation and reduced H2O2-induced decrease in HGEPp survival”.

What about the “day of peak mean mucositis score” value ([2]; 40 Gy Day 0, 5 mg/mL, 0.2 mL topical BID, Days −3 to 28) of the same compound?
Its value is 16 days.

What about the “peak mean mucositis score” value ([2]; 40 Gy Day 0, 5 mg/mL, 0.2 mL topical to left cheek pouch BID, Days −3 to 28) of the same compound?
Its value is 3.25±0.11.

What about the “Percent Ulceration by Day (Score ≥3)” value ([2]; Day 6) of the same compound?
The value was 0.0%.

And the “Percent Ulceration by Day (Score ≥3)” value ([2]; Day 8)?
The value was 0.0%.

And the “Percent Ulceration by Day (Score ≥3)” value ([2]; Day 10)?
The value was 0.0%.

What about the “Percent Ulceration by Day (Score ≥3)” value ([2]; Day 12) of the same compound?
The value was 50.0%.

And the “Percent Ulceration by Day (Score ≥3)” value ([2]; Day 14)?
The value was 100.0%.

What about the “Percent Ulceration by Day (Score ≥3)” value ([2]; Day 16) of the same compound?
The value was 100.0%.

What about the “Percent Ulceration by Day (Score ≥3)” value ([2]; Day 18) of the same compound?
Its value is 100.0%.

What about the “Percent Ulceration by Day (Score ≥3)” value ([2]; Day 20) of the same compound?
The value was 100.0%.

What about the “Percent Ulceration by Day (Score ≥3)” value ([2]; Day 22) of the same compound?
The value was 100.0%.

What about the “Percent Ulceration by Day (Score ≥3)” value ([2]; Day 24) of the same compound?
The value was 50.0%.

What about the “Percent Ulceration by Day (Score ≥3)” value ([2]; Day 26) of the same compound?
Its value is 25.0%.

What about the “Percent Ulceration by Day (Score ≥3)” value ([2]; Day 28) of the same compound?
Its value is 25.0%.

And the “% Days ≥3” value ([2]; entire study duration)?
The value was 54.17%.

And the “Days <3 (animal days with mucositis score <3)” value [2, 5]?
The value was 88.

What about the “Days ≥3 (animal days with mucositis score ≥3)” value [2, 5] of the same compound?
Its value is 104.

What about the “effect on ROS levels in H2O2 treated HGEPp cells” value ([3]; Example 7, 100 ug/ml and 200 ug/ml, 24 h pretreatment, P<0.05 versus PC) of the same compound?
The value was “significantly reduced ROS levels”.

Which results are given for `C[C@]12N[C@H](Cc3ccccc31)c1ccccc12` [MK801]?
normalization of plasma membrane integrity (LDH release) (rat cortical neurons): 33%; prevention of OGD-induced apoptosis (caspase 3/7 activation) (rat cortical neurons; 24 h after OGD): 25%; prevention of OGD-induced mortality (cell number, hoechst 33342) (rat cortical neurons; 24 h after OGD): 26%; re-establishment of mitochondrial membrane potential (TMRM) (rat cortical neurons; 24 hours post-exposure): 13%; re-establishment of neurite outgrowth affected by OGD (rat cortical neurons; average length, beta III tubulin): 94%; CASPASE score (rat cortical neurons; Table 16): 1 (1 (variation 20-40%)); HOECHST score (cell number) (rat cortical neurons; Table 16): 1 (1 (variation 20-40%)); LDH score (rat cortical neurons; Table 16): 1 (1 (variation 20-40%)); Neurite score (rat cortical neurons; Table 16): 3 (3 (variation 60-100%)); Neuroprotection degree (rat cortical neurons; Table 16): moderate (moderate (5-7)); TMRM score (rat cortical neurons; Table 16): 0 (0 (no neuroprotection or variation lower than 20%)); Total (sum of individual scores) (rat cortical neurons; Table 16): 6

Which “effect on proliferation/survival” value [1, 4] does the source give for `CN(C)C(=N)N=C(N)N` [Metformin] here?
Its value is “little or no impact”.

For `O=C1C(O)=C([C@H]2CC[C@H](c3ccc(Cl)cc3)CC2)C(=O)c2ccccc21` [Atovaquone, trans-2-[4-(4-chlorophenyl)cyclohexyl]-3-hydroxy-1,4-naphthalenedione], which “effect on proliferation/survival” value ([1]; Example 9, all doses tested 12.5-800 μg/mL (each), 24 hr pretreatment, 0.3 mM H2O2 4 h) is on record?
Its value is “no impact”.

What about the “effect on ROS levels in H2O2 challenged HGEPp cells” value ([3]; Example 9, 50, 100, 200 μg/mL, 24 hr pretreatment) of the same compound?
The value was “does not change ROS levels”.

With `CC(=O)N[C@@H](CS)C(=O)O` [NAC] as the compound, how does the “normalization of OGD-induced LDH release” value (mouse cardiomyocytes) read?
The value was 26%.

And the “prevention of OGD-induced apoptosis (caspase 3/7)” value (mouse cardiomyocytes)?
The value was 31%.

What about the “protection against OGD-induced reduction in ATP levels” value (mouse cardiomyocytes) of the same compound?
Its value is 21%.

What about the “prevention of OGD-induced mortality (cell number)” value (mouse cardiomyocytes; 24 h after exposure) of the same compound?
The value was 21%.

What about the ATP score (mouse cardiomyocytes; Table 18) of the same compound?
The ATP score was 1 (1 (variation 20-40%)).

What about the CASPASE score (mouse cardiomyocytes; Table 18) of the same compound?
Its CASPASE score is 1 (1 (variation 20-40%)).

And the “HOECHST score (cell number)” value (mouse cardiomyocytes; Table 18)?
Its value is 1 (1 (variation 20-40%)).

And the LDH score (mouse cardiomyocytes; Table 18)?
Its LDH score is 1 (1 (variation 20-40%)).

And the Neuroprotection degree (mouse cardiomyocytes; Table 18)?
The Neuroprotection degree was “Moderate”.

What about the “Total (sum of individual scores)” value (mouse cardiomyocytes; Table 18) of the same compound?
Its value is 4.

With `OO` [H2O2, hydrogen peroxide] as the compound, how does the “reduction in cell number” value ([1]; 0.3 mM H2O2, 4 h) read?
The value was 48%.
